The text below walks through data of US5681800A, “Biodegradable branched synthetic ester base stocks and lubricants formed therefrom” (priority 1995, dated 1997).

For series [1] the following is noted: background; cited from earlier work.
A short description of the next series: Pour Point (ASTM D-97). It is filed as physicochemical. As for the experimental part: (§1) The properties listed in Tables 1 and 2 were determined as follows. Pour Point was determined using ASTM # D-97. Brookfield Viscosity at -25° C. was determined using ASTM # D-2983. Kinematic viscosity (@ 40 and 100° C.) was determined using ASTM # D-445. Viscosity index (VI) was determined using ASTM # D-2270. Biodegradation was determined using the Modified Sturm test (OECD Test No. 301B). Solubility with dispersant was determined by blending the desired ratios and looking for haze, cloudiness, two-phases, etc. Engine wear was determined using the NMMA Yamaha CE50S Lubricity test. Oxidation induction time was determined using a high pressure differential scanning calorimeter (HPDSC) having isothermal/isobaric conditions of 220° C. and 500 psi (3.445 MPa) air, respectively. Aquatic toxicity was determined using the Dispersion Aquatic Toxicity test. The acid number was determined using ASTM # D-664. The hydroxyl number of the respective samples was determined by infrared spectroscopy.

Series [2] is described as follows: Brookfield Viscosity at -25° C. (ASTM D-2983). In kind it is physicochemical. As for the experimental part: as §1
Series [3] in a line: Kinematic viscosity (ASTM D-445). In kind it is physicochemical. As for the experimental part: as §1
Series [4] in a line: Viscosity index (ASTM D-2270). In kind it is physicochemical. As to the method: as §1
Series [5] can be described thus: Oxidation induction time by HPDSC. It is filed as physicochemical. The note with it: 220° C., 500 psi air.
Experimental: *Oxidation Induction Time is the amount of time (in minutes) for a
molecule to oxidatively decompose under a particular set of conditions
using a high pressure differential scanning calorimeter (HPDSC).
The conditions used to evaluate these molecules were: 220° C.
The next series can be described thus: Acid number (ASTM D-664). In kind it is physicochemical. As for the experimental part:
as §1

With `CCCCCCCCCC(=O)OCC(COC(=O)CCCCCCCCC)(COC(=O)CCCCCCCCC)COC(=O)CCCCCCCCC` [ester of pentaerythritol and n-C10 acid], the “viscosity at 40° C.” value in series [1] was “about 38.6 cSt”.

`CCCCCCCCCCCOC(=O)CCCCC(=O)OCCCCCCCCCCC` [Di-undecyladipate]: the “Pour Point” value in the series “Pour Point (ASTM D-97)” is “+21 °C”. The “Vis @ -25° C.” value in series [2] is recorded as “solid”. Further, in series [3], the “Vis. @ 40° C.” value is 13.92 cSt and the “Vis. @ 100° C.” value stood at 2.80 cSt.

“triester of trimethylolpropane and isostearic acid [TMP/iC18]”: the “Pour Point” value in the series “Pour Point (ASTM D-97)” is -20 °C. In addition, the “-25° C. Viscosity” value in series [2] (Tables 2 and 4) is on record as 358,000 cps. In addition, in series [3], the “Vis. @ 40° C.” value was 78.34 cSt and the “Vis. @ 100° C.” value came out at 11.94 cSt. The “Viscosity Index” value in series [4] turned out to be 147. Moreover, the “Oxidation Induction Time” value in series [5] worked out at 4.29 min. The “Acid Number” value in “Acid number (ASTM D-664)” came out at 1.9 mgKOH/g.
